The target in data set [1] is T1, human p38 kinase alpha (Homo sapiens, UniProt Q16539).
T1 construct: The coding region of the human p38a cDNA was obtained by PCR-amplification from RNA; made in house; host or cells: E. coli DH10B
Description: p38α in vitro kinase assay, PHAS-I procedure. It counts as biochemical. The procedure: The ability of compounds to inhibit human p38 kinase alpha was evaluated using two in vitro assay methods. In the first method, activated human p38 kinase alpha phosphorylates a biotinylated substrate, PHAS-I (phosphorylated heat and acid stable protein-insulin inducible), in the presence of gamma ^32P-ATP (^32P-ATP). PHAS-I was biotinylated prior to the assay and provides a means of capturing the substrate which is phosphorylated during the assay. p38 Kinase was activated by MKK6. Compounds were tested in 10 fold serial dilutions over the range of 100 μM to 0.001 μM using 1% DMSO. Each concentration of inhibitor was tested in triplicate.
All reactions were carried out in 96 well polypropylene plates. Each reaction well contained 25 mM HEPES pH 7.5, 10 mM magnesium acetate and 50 μM unlabeled ATP. Activation of p38 was required to achieve sufficient signal in the assay. Biotinylated PHAS-I was used at 1-2 μg per 50 μl reaction volume, with a final concentration of 1.5 μM. Activated human p38 kinase alpha was used at 1 μg per 50 μl reaction volume representing a final concentration of 0.3 μM. […]
Following incubation, 20 μl of reaction mixture was transferred to a high capacity streptavidin coated filter plate (SAM-streptavidin-matrix, Promega) prewetted with phosphate buffered saline. […] The plates were sealed and counted.

For data set [2], the target named is T1, human p38 kinase alpha. Description: p38α in vitro kinase assay, EGFRP procedure. Format: biochemical. The procedure: A second assay format was also employed that is based on p38 kinase alpha induced phosphorylation of EGFRP (epidermal growth factor receptor peptide, a 21 mer) in the presence of ^33P-ATP. Compounds were tested in 10 fold serial dilutions over the range of 100 μM to 0.001 μM in 1% DMSO. Each concentration of inhibitor was tested in triplicate. Compounds were evaluated in 50 μl reaction volumes in the presence of 25 mM Hepes pH 7.5, 10 mM magnesium acetate, 4% glycerol, 0.4% bovine serum albumin, 0.4 mM DTT, 50 μM unlabeled ATP, 25 μg EGFRP (200 μM), and 0.05 uCi gamma ^33P-ATP. Reactions were initiated by addition of 0.09 μg of activated, purified human GST-p38 kinase alpha. Activation was carried out using GST-MKK6 (5:1,p38:MKK6) for one hour at 30° C. in the presence of 50 μM ATP. Following incubation for 60 minutes at room temperature, the reaction was stopped by addition of 150 μl of AG 1×8 resin in 900 mM sodium formate buffer, pH 3.0 (1 volume resin to 2 volumes buffer). The mixture was mixed three times with pipetting and the resin was allowed to settle. A total of 50 μl of clarified solution head volume was transferred from the reaction wells to Microlite-2 plates. 150 μl of Microscint 40 was then added to each well of the Microlite plate, and the plate was sealed, mixed, and counted.

The subject of data set [3] is TNF-α release by U937 cells. Description: LPS stimulation of TNF production by U937 cells. The following applies: Homo sapiens, U-937; LPS-stimulated differentiated U937 cells, TNF-α by ELISA after 4 hour incubation; read-out: TNF Cell IC50. It counts as cell-based. The procedure: U937 cells (ATCC) were propagated in RPMI 1640 containing 10% fetal bovine serum, 100 IU/ml penicillin, 100 μg/ml streptomycin, and 2 mM glutamine (Gibco). Fifty million cells in 100 ml media were induced to terminal monocytic differentiation by 24 hour incubation with 20 ng/ml phorbol 12-myristate 13-acetate (Sigma). The cells were washed by centrifugation (200×g for 5 min) and resuspended in 100 ml fresh medium. After 24-48 hours, the cells were harvested, centrifuged, and resuspended in culture medium at 2 million cells/ml.
U937 cells (0.1 ml, 2 million/ml) were incubated with 0.1 ml compound (0.004-50 μM, final concentration) for 1 hour in 96 well microtiter plates. Compounds were prepared as 10 mM stock solutions in DMSO and diluted in culture medium to yield a final DMSO concentration of 0.1% in the cell assay. LPS (E coli, 100 ng/ml final concentration) was then added at a volume of 0.02 ml. After 4 hour incubation at 37° C., the amount of TNF-α released in the culture medium was quantitated by ELISA. Inhibitory potency is expressed as IC50 (μM).

Structures are written as SMILES.

T1 sequence (Q16539 whole entry): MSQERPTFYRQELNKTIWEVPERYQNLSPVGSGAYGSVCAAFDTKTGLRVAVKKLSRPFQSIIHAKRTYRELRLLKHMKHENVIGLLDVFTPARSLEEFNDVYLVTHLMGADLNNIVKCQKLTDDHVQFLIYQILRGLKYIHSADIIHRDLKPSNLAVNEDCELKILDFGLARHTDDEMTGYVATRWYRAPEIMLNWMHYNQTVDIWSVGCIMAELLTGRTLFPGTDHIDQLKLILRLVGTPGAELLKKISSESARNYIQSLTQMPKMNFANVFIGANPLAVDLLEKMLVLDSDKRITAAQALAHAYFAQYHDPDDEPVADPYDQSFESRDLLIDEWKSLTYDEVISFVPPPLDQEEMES

For `Cc1n[nH]c(/C=C/c2ccccc2)c1-c1ccncc1` [Example 1, 4-[3-Methyl-5-(2-phenylethenyl)-1H-pyrazol-4-yl]pyridine], the IC50 is 8.7 µM in data set [1], 660 nM in data set [2] and 600 nM in data set [3].

For `Cc1n[nH]c(CCc2ccccc2)c1-c1ccncc1` [Example 2, 4-[3-Methyl-5-(2-phenylethyl)-1H-pyrazol-4-yl]pyridine], the results for the IC50 in data set [1], in data set [2] and in data set [3] were 1 µM, 2800 nM and 2300 nM, respectively.

In the case of `c1ccc(CCc2n[nH]cc2-c2ccncc2)cc1` [Example 3, 4-[5-(2-phenylethyl)-1H-pyrazol-4-yl]pyridine], the melting point is 125 to 131 °C.

The IC50 is the concentration needed to halve the response being measured. The melting point is the temperature of the solid-liquid transition.

The values above are taken from patent US6852740B2, “Pyrazole derivatives as p38 kinase inhibitors” (G. D. Searle & Co., priority 1997, dated 2005).
